The values below come from patent publication US8846719B2, “Isoxazolo-pyridine derivatives” (Roche Palo Alto LLC, priority 2007, dated 2014).

The target in the assay is human GABA A receptor α5β3γ2 (Homo sapiens (Human), UniProt P18507+P31644). Briefly: [3H]flumazenil competition binding assay, human GABA A α5β3γ2 receptors expressed in HEK293 cells. The settings on record: human receptor; displacement of [3H]flumazenil (0.5 nM); means of two determinations; read-out: hKi GABAAa5. A digest of the protocol: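 Competition for [3H]flumazenil binding on membranes of HEK293 cells transiently transfected with human α5β3γ2 receptors, in Krebs-tris buffer pH 7.5.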
(Displacement assays read how much labelled ligand stays bound in the presence of the test substance.)
As for `Cc1onc(-c2ccccc2)c1COc1ccc(C(=O)NC(C)(C)CO)cn1` [Example 183, N-(2-Hydroxy-1,1-dimethyl-ethyl)-6-(5-methyl-3-phenyl-isoxazol-4-ylmethoxy)-nicotinamide], the Ki turned out to be 10 nM.
For the molecule `COCCNC(=O)c1ccc(OCc2c(-c3ccccc3)noc2C)nc1` [Example 184, N-(2-Methoxy-ethyl)-6-(5-methyl-3-phenyl-isoxazol-4-ylmethoxy)-nicotinamide], the Ki is 7.8 nM.
Under `Cc1onc(-c2ccccc2)c1COc1ccc(C(=O)NC2CCS(=O)(=O)C2)cn1` (stereo not drawn) [Example 185, N-(1,1-Dioxo-tetrahydro-thiophen-3-yl)-6-(5-methyl-3-phenyl-isoxazol-4-ylmethoxy)-nicotinamide] stands 4.5 nM; under `Cc1onc(-c2ccccc2)c1COc1ccc(C(=O)NCC(O)C(F)(F)F)cn1` (stereo not drawn) [Example 186, 6-(5-Methyl-3-phenyl-isoxazol-4-ylmethoxy)-N-(3,3,3-trifluoro-2-hydroxy-propyl)-nicotinamide], 2.3 nM.
Next, `Cc1onc(-c2ccccc2)c1COc1ccc(C(=O)N2CCC(O)CC2)cn1` [Example 187, (4-Hydroxy-piperidin-1-yl)-[6-(5-methyl-3-phenyl-isoxazol-4-ylmethoxy)-pyridin-3-yl]-methanone]: 73.4 nM; `Cc1onc(-c2ccccc2)c1COc1ccc(C(=O)NCC(C)(C)CO)cn1` [Example 188, N-(3-Hydroxy-2,2-dimethyl-propyl)-6-(5-methyl-3-phenyl-isoxazol-4-ylmethoxy)-nicotinamide]: 7.7 nM.
Next, `Cc1onc(-c2ccccc2)c1COc1ccc(C(=O)NCCOC(C)C)cn1` [Example 189, N-(2-Isopropoxy-ethyl)-6-(5-methyl-3-phenyl-isoxazol-4-ylmethoxy)-nicotinamide]: 41.3 nM; `Cc1onc(-c2ccccc2)c1COc1ccc(C(=O)NC(C)CO)cn1` (stereo not drawn) [Example 190, N-(2-Hydroxy-1-methyl-ethyl)-6-(5-methyl-3-phenyl-isoxazol-4-ylmethoxy)-nicotinamide]: 1 nM.
As to `Cc1onc(-c2ccccc2)c1COc1ccc(C(=O)N2CC(O)C2)cn1` [Example 191, (3-Hydroxy-azetidin-1-yl)-[6-(5-methyl-3-phenyl-isoxazol-4-ylmethoxy)-pyridin-3-yl]-methanone], the Ki amounted to 5 nM.
Under `Cc1onc(-c2ccccc2)c1COc1ccc(C(=O)NC2CCCCC2O)cn1` (stereo not drawn) [Example 192, N-(2-Hydroxy-cyclohexyl)-6-(5-methyl-3-phenyl-isoxazol-4-ylmethoxy)-nicotinamide] stands 2.9 nM; under `Cc1onc(-c2ccccc2)c1COc1ccc(C(=O)NCC(C)(C)O)cn1` [Example 193, N-(2-Hydroxy-2-methyl-propyl)-6-(5-methyl-3-phenyl-isoxazol-4-ylmethoxy)-nicotinamide], 2.3 nM; under `Cc1onc(-c2ccccc2)c1COc1ccc(C(=O)NCC2(O)CC2)cn1` [Example 194, N-(1-Hydroxy-cyclopropylmethyl)-6-(5-methyl-3-phenyl-isoxazol-4-ylmethoxy)-nicotinamide], 2.1 nM.
Regarding `Cc1onc(-c2ccccc2)c1COc1ccc(C(=O)N[C@H](C)CO)cn1` [Example 195, N—((R)-2-Hydroxy-1-methyl-ethyl)-6-(5-methyl-3-phenyl-isoxazol-4-ylmethoxy)-nicotinamide], the Ki was 1.7 nM.
For the molecule `Cc1onc(-c2ccccc2)c1COc1ccc(C(=O)N[C@@H](C)CO)cn1` [Example 196, N—((S)-2-Hydroxy-1-methyl-ethyl)-6-(5-methyl-3-phenyl-isoxazol-4-ylmethoxy)-nicotinamide], the Ki stood at 0.7 nM.
In the case of `Cc1onc(-c2ccccc2)c1COc1ccc(C(=O)N[C@@H]2CCCC[C@H]2O)cn1` [Example 197, N-((1R,2R)-2-Hydroxy-cyclohexyl)-6-(5-methyl-3-phenyl-isoxazol-4-ylmethoxy)-nicotinamide], the Ki came to 11 nM.
Under `Cc1onc(-c2ccccc2)c1COc1ccc(C(=O)N[C@H]2CCCC[C@@H]2O)cn1` [Example 198, N-((1S,2S)-2-Hydroxy-cyclohexyl)-6-(5-methyl-3-phenyl-isoxazol-4-ylmethoxy)-nicotinamide] stands 6.5 nM.
As to `Cc1onc(-c2ccccc2)c1COc1ccc(C(=O)NC2CCCC2O)cn1` (stereo not drawn) [Example 200, N-(2-Hydroxy-cyclopentyl)-6-(5-methyl-3-phenyl-isoxazol-4-ylmethoxy)-nicotinamide], the Ki turned out to be 3.9 nM.
Next, `Cc1onc(-c2ccccc2)c1COc1ccc(C(=O)NC(CO)CO)cn1` [Example 201, N-(2-Hydroxy-1-hydroxymethyl-ethyl)-6-(5-methyl-3-phenyl-isoxazol-4-ylmethoxy)-nicotinamide]: 1.7 nM; `Cc1onc(-c2ccccc2)c1COc1ccc(C(=O)N[C@H]2CCOC2)cn1` [Example 202, 6-(5-Methyl-3-phenyl-isoxazol-4-ylmethoxy)-N—(S)-tetrahydro-furan-3-yl-nicotinamide]: 1.6 nM; `CC(=O)NCCNC(=O)c1ccc(OCc2c(-c3ccccc3)noc2C)nc1` [Example 205, N-(2-Acetylamino-ethyl)-6-(5-methyl-3-phenyl-isoxazol-4-ylmethoxy)-nicotinamide]: 4 nM.
Next, `Cc1onc(-c2ccccc2)c1COc1ccc(C(=O)N[C@H](CO)C(C)C)cn1` [Example 206, N—((S)-1-Hydroxymethyl-2-methyl-propyl)-6-(5-methyl-3-phenyl-isoxazol-4-ylmethoxy)-nicotinamide]: 1.8 nM; `Cc1onc(-c2ccccc2)c1COc1ccc(C(=O)N[C@H](CO)CC(C)C)cn1` [Example 207, N—((S)-1-Hydroxymethyl-3-methyl-butyl)-6-(5-methyl-3-phenyl-isoxazol-4-ylmethoxy)-nicotinamide]: 10.9 nM; `CC[C@@H](CO)NC(=O)c1ccc(OCc2c(-c3ccccc3)noc2C)nc1` [Example 208, N—((S)-1-Hydroxymethyl-propyl)-6-(5-methyl-3-phenyl-isoxazol-4-ylmethoxy)-nicotinamide]: 0.7 nM.
`CC[C@H](CO)NC(=O)c1ccc(OCc2c(-c3ccccc3)noc2C)nc1` [Example 209, N—((R)-1-Hydroxymethyl-propyl)-6-(5-methyl-3-phenyl-isoxazol-4-ylmethoxy)-nicotinamide]: the Ki was 2.3 nM.
`Cc1onc(-c2ccccc2)c1COc1ccc(C(=O)NCCN2CCNC2=O)cn1` [Example 214, 6-(5-Methyl-3-phenyl-isoxazol-4-ylmethoxy)-N-[2-(2-oxo-imidazolidin-1-yl)-ethyl]-nicotinamide]: the Ki stood at 4.3 nM.
Consider `Cc1onc(-c2ccccc2)c1COc1ccc(C(=O)NCCC(C)O)cn1` (stereo not drawn) [Example 215, N-(3-Hydroxy-butyl)-6-(5-methyl-3-phenyl-isoxazol-4-ylmethoxy)-nicotinamide], for which the Ki amounted to 2.3 nM.
Next, `Cc1onc(-c2ccccc2)c1COc1ccc(C(=O)NC2CN(C(=O)OC(C)(C)C)C2)cn1` [Example 216, 3-{[6-(5-Methyl-3-phenyl-isoxazol-4-ylmethoxy)-pyridine-3-carbonyl]-amino}-azetidine-1-carboxylic acid tert-butyl ester]: 4.5 nM.
